{"source": "ChEMBL document CHEMBL4808186", "about": "“Structure-Based Discovery of Pyrimidine Aminobenzene Derivatives as Potent Oral Reversal Agents against P-gp- and BCRP-Mediated Multidrug Resistance” (J Med Chem, 2021)", "key": {"[1]": {"system": "K562", "test": "cells", "conditions": "Homo sapiens, K562, 48 h, read-out: Activity"}, "[2]": {"system": "MDCK-II", "test": "cells", "conditions": "Canis lupus familiaris, 48 h"}, "[3]": {"system": "K562/A02", "test": "Cytotoxicity against P-gp overexpressing human K562/A02 cells incubated for 48 hrs by MTT assay", "type": "functional, cell-based", "conditions": "K562/A02, 48 h"}, "[4]": {"system": "K562", "test": "Cytotoxicity against human K562 cells incubated for 48 hrs by MTT assay", "type": "functional, cell-based", "conditions": "K562, 48 h"}, "[5]": {"system": "MDCK-II", "test": "cells", "conditions": "Canis lupus familiaris, 48 h", "remark": "listed apart in the source"}, "[6]": {"system": "K562/A02", "test": "Potentiation of adriamycin-induced apoptosis in human K562/A02 cells assessed as viable cells at 10 uM incubated for 48 hrs in presence of 10 uM adriamycin by Annexin-V/FITC-based flow cytometry (reference value: 96.5%)", "type": "functional", "conditions": "read-out: Activity"}, "[7]": {"test": "Toxicity in BALB/c mouse xenografted with human K562/A02 cells assessed as degeneration and necrosis of kidney tissue at 4 mg/kg, iv once every 2 days for 14 days in presence of 2 mg/kg adriamycin by HE staining", "type": "organism-based", "conditions": "in vivo, 48 h, time 2 day"}, "[8]": {"system": "K562/A02", "test": "Potentiation of adriamycin-induced apoptosis in human K562/A02 cells assessed as necrotic cells at 0.5 uM incubated for 48 hrs in presence of 10 uM adriamycin by Annexin-V/FITC-based flow cytometry (reference value: 0.3%)", "type": "functional"}, "[9]": {"system": "MDCK-II", "test": "Inhibition of BCRP-mediated multidrug resistance in MDCK-II cells assessed as mitoxantrone accumulation […] pretreated 1 hr followed by treated with mitoxantrone measured after 180 mins by fluorescence microscopy", "type": "cell-based", "conditions": "Canis lupus familiaris, time 240.0 min"}, "[10]": {"system": "MDCK-II", "test": "Inhibition of BCRP-mediated multidrug resistance in MDCK-II cells assessed as mitoxantrone accumulation at 0.1 to 5 uM pretreated 1 hr followed by treated with mitoxantrone measured after 180 mins by flow cytometry", "type": "cell-based", "conditions": "Canis lupus familiaris, dose 0.1-5 µM, time 240.0 min"}, "[11]": {"system": "K562/A02", "test": "Potentiation of adriamycin-induced apoptosis in human K562/A02 cells assessed as early apoptotic cells at 5 uM incubated for 48 hrs in presence of 10 uM adriamycin by Annexin-V/FITC-based flow cytometry (reference value: 2.9%)", "type": "functional"}, "[12]": {"biological_target": "T1, ATP-dependent translocase ABCB1 (Homo sapiens, UniProt P08183)", "T1 sequence (P08183 whole entry)": "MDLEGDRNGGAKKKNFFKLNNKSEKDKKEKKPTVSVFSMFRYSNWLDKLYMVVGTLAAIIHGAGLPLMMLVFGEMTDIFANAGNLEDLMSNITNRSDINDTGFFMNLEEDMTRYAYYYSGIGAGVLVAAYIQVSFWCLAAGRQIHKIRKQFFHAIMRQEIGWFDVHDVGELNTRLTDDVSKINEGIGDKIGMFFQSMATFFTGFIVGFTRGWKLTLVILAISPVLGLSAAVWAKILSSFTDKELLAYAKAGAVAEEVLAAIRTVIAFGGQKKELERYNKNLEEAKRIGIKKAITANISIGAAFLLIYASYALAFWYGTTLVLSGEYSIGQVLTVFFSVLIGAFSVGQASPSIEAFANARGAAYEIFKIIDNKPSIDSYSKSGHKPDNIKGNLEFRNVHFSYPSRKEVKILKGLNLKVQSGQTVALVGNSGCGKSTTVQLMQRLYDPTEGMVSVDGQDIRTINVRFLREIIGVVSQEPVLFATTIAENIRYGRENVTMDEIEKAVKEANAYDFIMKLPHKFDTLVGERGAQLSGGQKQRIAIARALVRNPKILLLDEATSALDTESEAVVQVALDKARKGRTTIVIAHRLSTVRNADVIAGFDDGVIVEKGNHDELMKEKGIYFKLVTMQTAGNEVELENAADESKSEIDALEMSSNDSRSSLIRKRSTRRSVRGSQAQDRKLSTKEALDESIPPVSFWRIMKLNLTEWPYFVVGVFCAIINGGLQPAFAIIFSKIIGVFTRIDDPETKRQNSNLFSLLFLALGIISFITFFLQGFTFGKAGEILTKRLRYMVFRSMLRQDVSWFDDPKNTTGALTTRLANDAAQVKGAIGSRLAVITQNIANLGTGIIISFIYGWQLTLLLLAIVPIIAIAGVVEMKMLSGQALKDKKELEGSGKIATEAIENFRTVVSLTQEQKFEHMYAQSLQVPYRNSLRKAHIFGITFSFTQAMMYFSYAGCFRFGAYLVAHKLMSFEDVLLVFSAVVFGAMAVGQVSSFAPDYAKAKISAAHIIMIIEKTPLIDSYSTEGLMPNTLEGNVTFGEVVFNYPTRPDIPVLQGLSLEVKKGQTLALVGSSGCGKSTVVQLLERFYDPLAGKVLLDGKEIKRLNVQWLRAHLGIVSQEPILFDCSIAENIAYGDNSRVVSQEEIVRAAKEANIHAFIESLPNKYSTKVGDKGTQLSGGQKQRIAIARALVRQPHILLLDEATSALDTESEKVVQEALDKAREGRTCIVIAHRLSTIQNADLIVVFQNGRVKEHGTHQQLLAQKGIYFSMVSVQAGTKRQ", "test": "Inhibition of P-gp-mediated multidrug resistance in human K562/A02 cells assessed as suppression of Rh123 efflux at 10 uM treated after 90 mins of Rh123 treatment measure up to 120 mins by flow cytometry", "type": "cell-based", "conditions": "k562/a02, 10 µM"}, "[13]": {"biological_target": "T1, ATP-dependent translocase ABCB1", "test": "Inhibition of P-gp-mediated multidrug resistance in human K562/A02 cells assessed as Adriamycin accumulation pretreated 1 hr followed by treated with adriamycin measured after 180 mins by flow cytometry", "type": "cell-based", "conditions": "k562/a02, 4 h, time 240 min"}, "[14]": {"system": "K562/A02", "test": "Effect on P-gp expression in human K562/A02 cells at 1 to 10 uM incubated for 48 hrs by Western blot analysis", "type": "functional, cell-based", "conditions": "dose 1-10 µM"}, "[15]": {"biological_target": "T1, ATP-dependent translocase ABCB1", "test": "Inhibition of P-gp-mediated multidrug resistance in human K562/A02 cells assessed as Adriamycin accumulation at 1 to 10 uM pretreated 1 hr followed by treated with adriamycin measured after 180 mins by fluorescence microscopy", "type": "cell-based", "conditions": "k562/a02, 4 h, dose 1-10 µM, time 240 min"}, "[16]": {"system": "K562/A02", "test": "Antitumor activity against human K562/A02 cells xenografted in BALB/c mouse assessed as degeneration and necrosis of tumor tissue at 4 mg/kg, iv single dose in presence of 2 mg/kg adriamycin by HE staining", "type": "functional, organism-based"}, "[17]": {"system": "K562/A02", "test": "Antitumor activity against human K562/A02 cells xenografted in BALB/c mouse assessed as reduction in tumor weight at 4 mg/kg, iv once every 2 days for 14 days in presence of 2 mg/kg adriamycin", "type": "functional, organism-based", "conditions": "time 2.0 day"}, "[18]": {"system": "K562/A02", "test": "Potentiation of adriamycin-induced apoptosis in human K562/A02 cells assessed as viable cells at 5 uM incubated for 48 hrs in presence of 10 uM adriamycin by Annexin-V/FITC-based flow cytometry (reference value: 96.5%)", "type": "functional", "conditions": "read-out: Activity"}, "[19]": {"test": "Toxicity in BALB/c mouse xenografted with human K562/A02 cells assessed as degeneration and necrosis of liver tissue at 4 mg/kg, iv once every 2 days for 14 days in presence of 2 mg/kg adriamycin by HE staining", "type": "organism-based", "conditions": "in vivo, 48 h, time 2 day"}, "[20]": {"system": "MDCK-II", "test": "Effect on BCRP expression in MDCK-II cells at 1 to 10 uM incubated for 48 hrs by Western blot analysis", "type": "functional, cell-based", "conditions": "Canis lupus familiaris, dose 1-10 µM"}, "[21]": {"system": "K562/A02", "test": "Potentiation of adriamycin-induced apoptosis in human K562/A02 cells assessed as necrotic cells at 10 uM incubated for 48 hrs in presence of 10 uM adriamycin by Annexin-V/FITC-based flow cytometry (reference value: 0.3%)", "type": "functional"}, "[22]": {"system": "K562/A02", "test": "Potentiation of adriamycin-induced apoptosis in human K562/A02 cells assessed as viable cells at 0.5 uM incubated for 48 hrs in presence of 10 uM adriamycin by Annexin-V/FITC-based flow cytometry (reference value: 96.5%)", "type": "functional", "conditions": "read-out: Activity"}, "[23]": {"system": "K562/A02", "test": "Potentiation of adriamycin-induced apoptosis in human K562/A02 cells assessed as late apoptotic cells at 5 uM incubated for 48 hrs in presence of 10 uM adriamycin by Annexin-V/FITC-based flow cytometry (reference value: 0.4%)", "type": "functional"}, "[24]": {"system": "K562/A02", "test": "Potentiation of adriamycin-induced apoptosis in human K562/A02 cells assessed as early apoptotic cells at 10 uM incubated for 48 hrs in presence of 10 uM adriamycin by Annexin-V/FITC-based flow cytometry (reference value: 2.9%)", "type": "functional"}, "[25]": {"system": "K562/A02", "test": "Potentiation of adriamycin-induced apoptosis in human K562/A02 cells assessed as late apoptotic cells at 0.5 uM incubated for 48 hrs in presence of 10 uM adriamycin by Annexin-V/FITC-based flow cytometry (reference value: 0.4%)", "type": "functional"}, "[26]": {"system": "K562/A02", "test": "Potentiation of adriamycin-induced apoptosis in human K562/A02 cells assessed as early apoptotic cells at 0.5 uM incubated for 48 hrs in presence of 10 uM adriamycin by Annexin-V/FITC-based flow cytometry (reference value: 2.9%)", "type": "functional"}, "[27]": {"system": "K562/A02", "test": "Antitumor activity against human K562/A02 cells xenografted in BALB/c mouse assessed as reduction in tumor size at 4 mg/kg, iv once every 2 days for 14 days in presence of 2 mg/kg adriamycin", "type": "functional, organism-based", "conditions": "time 2.0 day"}, "[28]": {"system": "K562/A02", "test": "Antitumor activity against human K562/A02 cells xenografted in BALB/c mouse assessed as reduction in tumor volume at 4 mg/kg, iv once every 2 days for 14 days in presence of 2 mg/kg adriamycin", "type": "functional, organism-based", "conditions": "time 2.0 day"}, "[29]": {"system": "K562/A02", "test": "Potentiation of adriamycin-induced apoptosis in human K562/A02 cells assessed as late apoptotic cells at 10 uM incubated for 48 hrs in presence of 10 uM adriamycin by Annexin-V/FITC-based flow cytometry (reference value: 0.4%)", "type": "functional"}, "[30]": {"test": "n-Octanol/water partition coefficient, logP of the compound by UHPLC analysis", "type": "physicochemical"}, "[31]": {"system": "K562/A02", "test": "Potentiation of adriamycin-induced apoptosis in human K562/A02 cells assessed as necrotic cells at 5 uM incubated for 48 hrs in presence of 10 uM adriamycin by Annexin-V/FITC-based flow cytometry (reference value: 0.3%)", "type": "functional"}}, "note": "The source made the active and inactive calls. The rule behind the calls is not given here."}
{"smiles": "Cc1ccc(NC(=O)c2ccc(CN3CCN(C)CC3)cc2)cc1Nc1nccc(-c2cccnc2)n1", "note": "[IMATINIB]", "values": [{"measurement": "viability at 5 µM", "setting": "[1]", "value": 81.6, "unit": "%"}, {"measurement": "IC50", "setting": "[2]", "value": 65.8, "unit": "µM"}, {"measurement": "IC50", "setting": "[3]", "value": 75.7, "unit": "µM"}, {"measurement": "IC50", "setting": "[4]", "value": 87.3, "unit": "µM"}, {"measurement": "IC50", "setting": "[5]", "value": "> 100", "unit": "µM"}]}
{"smiles": "COc1cc2c(cc1OC)CN(CCNC(=O)c1ccc(C)c(Nc3nccc(-c4ccco4)n3)c1)CC2", "values": [{"measurement": "viability at 10 µM", "setting": "[6]", "value": 68.3, "unit": "%"}, {"measurement": "Activity", "setting": "[7]", "value": "Non-Toxic"}, {"measurement": "Activity", "setting": "[8]", "value": 1.1, "unit": "%"}, {"measurement": "Activity", "setting": "[9]", "value": "Active"}, {"measurement": "Activity", "setting": "[10]", "value": "Active"}, {"measurement": "Activity", "setting": "[11]", "value": 12.3, "unit": "%"}, {"measurement": "Activity", "setting": "[12]", "value": "Active"}, {"measurement": "IC50", "setting": "[2]", "value": "> 100", "unit": "µM"}, {"measurement": "Activity", "setting": "[13]", "value": "Dose-Dependent Effect"}, {"measurement": "Activity", "setting": "[14]", "value": "inactive"}, {"measurement": "Activity", "setting": "[15]", "value": "Active"}, {"measurement": "IC50", "setting": "[3]; read-out: IC50", "value": "> 100", "unit": "µM"}, {"measurement": "Activity", "setting": "[16]", "value": "Active"}, {"measurement": "Activity", "setting": "[17]", "value": "Active"}, {"measurement": "viability at 5 µM", "setting": "[18]", "value": 76.2, "unit": "%"}, {"measurement": "Activity", "setting": "[19]", "value": "Non-Toxic"}, {"measurement": "Activity", "setting": "[20]", "value": "inactive"}, {"measurement": "Activity", "setting": "[21]", "value": 2.5, "unit": "%"}, {"measurement": "viability at 0.5 µM", "setting": "[22]", "value": 84.8, "unit": "%"}, {"measurement": "IC50", "setting": "[4]", "value": "> 100", "unit": "µM"}, {"measurement": "Activity", "setting": "[23]", "value": 9.2, "unit": "%"}, {"measurement": "Activity", "setting": "[24]", "value": 19.3, "unit": "%"}, {"measurement": "Activity", "setting": "[25]", "value": 3.2, "unit": "%"}, {"measurement": "Activity", "setting": "[26]", "value": 10.9, "unit": "%"}, {"measurement": "Activity", "setting": "[27]", "value": "Active"}, {"measurement": "Activity", "setting": "[28]", "value": "Active"}, {"measurement": "Activity", "setting": "[29]", "value": 9.8, "unit": "%"}, {"measurement": "IC50", "setting": "[5]", "value": "> 100", "unit": "µM"}, {"measurement": "logP", "setting": "[30]", "value": 2.13}, {"measurement": "Activity", "setting": "[31]", "value": 2.4, "unit": "%"}]}
